In patent publication US20140243401A1, “METHODS OF SCREENING COMPOUNDS THAT ARE CYTOTOXIC TO TUMOR CELLS AND METHODS OF TREATING TUMOR CELLS USING SUCH COMPOUND” (The Johns Hopkins University, priority 2010, published 2014):
Values joined by “and” are separate entries in the source; they are usually repeats but may differ in a detail not shown here. Identical values can stand only once.

Key:
[1] = alamarBlue assay, primary human hepatocytes; assay type: cell-based; conditions: read-out: LC50 (the source's name)
[2] = tested on: OVCAR3 human ovarian cancer xenograft; assay: tumor xenograft size, OVCAR3; assay type: in vivo, Athymic Nude mice; conditions: Study 1129063207, OVCAR-3, oral b.i.d. 11 days, 50 mg/kg
Description: Xenograft studies were performed using various mmFAS inhibitors disclosed herein. Human cancer xenograft studies are known in the art. (See Pizer et al., Cancer Res. 56:1189-1193, 1996; Pizer et al., Cancer Res. 60: 213-218, 2000; Testa et al., Oncogene 24: 7455-7464, 2005).
In particular, C31 mouse efficacy studies were conducted in order to evaluate anti-neoplastic activity of C31 in vivo. Athymic Nude mice were implanted with HCT116 human colon, SKOV3 human ovarian or OVCAR3 human ovarian cancer cell lines and were treated when the grown tumor xenografts reached at least 150 to 200 mm^3.^1 ^1 Compounds were solubilized in TEP (80% polyethylene glycol (PEG) 400, 10% ethanol, 10% tween-80) in a volume of 50 μL.

For `CCCCCCCCC1(C)SC(=O)C=C1OCC(=O)Nc1ccc(Cl)cc1` (centres unmarked) [Compound C31], the CC50 [1] was 225 µg/mL and 562 µM and the “Average Tumor Size Endpoint (% Change)” value [2] was −59 % Change.
